Data on 1 compound can be found in patent US20130253022A1 (FOX CHASE CHEMICAL DIVERSITY CENTER, INC., priority 2010, published 2013).

Test [1] deals with Hippocampal Cultures. Put plainly: Neuroprotection from heavy metal toxicity, propidium iodide assay. Format: cell-based. The conditions noted are these: Rattus norvegicus, read-out: Neuroprotection EC50 PI. The text has this: All compounds were screened with dissociated hippocampal cultures derived from embryonic day 18 rats as the primary test system. With this preparation, primary neurons were used to test for prevention of heavy metal toxicity by the disclosed compounds. In brief, hippocampal tissue was obtained commercially through Brain Bits (Springfield, Ill.) and cultures prepared as previously described (Brewer, G. J. Serum-free B27/neurobasal medium supports differentiated growth of neurons from the striatum, substantia nigra, septum, cerebral cortex, cerebellum and dentate gyms, J. Neurosci. Res., 1995, 42, 674-683). The hippocampal neurons were platted at low density (10,000 cell/well) in a 96-well format and maintained in serum-free medium consisting of Neurobasal Medium supplemented with B27 and GlutaMAX (Gibco). Pre-coated poly-L-lysine coated plates are used because of the preferential adherence and survival of hippocampal neurons on this matrix support. Heavy metal toxicity is associated with the occurrence of seizures ([…] et al. Zinc and copper: pharmacological probes and endogenous modulators of neuronal excitability. Pharmacol. Ther. 2006, 111, 567-583). Therefore, the heavy metal toxicity studies serve as another example of the oxidative stress that the disclosed compounds have a protection action against. To establish the dose-dependency of test agents, day 18 hippocampal cultures were utilized to study the toxicity produced after treatment with the heavy metals and neuroprotection after treatment with test compounds. Serving as examples of heavy metal salts for these studies are the following: […] Prior to treatment, the B27/Neural Basal media of the cultures were replaced with B27 neural basal medium without antioxidants for 18 hours. […] Further, the removal of antioxidants in the medium was performed to obtain a significant and reproducible toxic signal for heavy metal treatment of the hippocampal neurons. At the conclusion of the 4 hour test period, the cultures are also tested for the amount of cell death as measured by the propidium iodide method. […] After removal of the growth medium, 50 μl of the 50 μM PI solution is added to cultures and allowed to incubate in the dark at room temperature for 15 min. The cultures are then assessed for fluorescence intensity at Ex536/Em590 nm in a CytoFluor fluorimeter. Results are expressed in relative fluorescent units. […] The test compound is added to the hippocampal cultures at concentrations that range from […] to […]. The incubation period is for four hours followed by the measurement of fluorescence at Ex536/Em590 nm in a CytoFluor fluorimeter. Results are expressed in relative fluorescent units. Background fluorescence was subtracted from values obtained from wells without cells.

The test system of test [2] is Hippocampal Cultures. Put plainly: Neuroprotection from heavy metal toxicity, CFDA assay. It counts as cell-based, rat. The conditions noted are these: for EC50: Rattus norvegicus. The source says:
All compounds were screened with dissociated hippocampal cultures derived from embryonic day 18 rats as the primary test system. With this preparation, primary neurons were used to test for prevention of heavy metal toxicity by the disclosed compounds. In brief, hippocampal tissue was obtained commercially through Brain Bits (Springfield, Ill.) and cultures prepared as previously described (Brewer, G. J. Serum-free B27/neurobasal medium supports differentiated growth of neurons from the striatum, substantia nigra, septum, cerebral cortex, cerebellum and dentate gyms, J. Neurosci. Res., 1995, 42, 674-683). The hippocampal neurons were platted at low density (10,000 cell/well) in a 96-well format and maintained in serum-free medium consisting of Neurobasal Medium supplemented with B27 and GlutaMAX (Gibco). Pre-coated poly-L-lysine coated plates are used because of the preferential adherence and survival of hippocampal neurons on this matrix support. Heavy metal toxicity is associated with the occurrence of seizures ([…] et al. Zinc and copper: pharmacological probes and endogenous modulators of neuronal excitability. Pharmacol. Ther. 2006, 111, 567-583). Therefore, the heavy metal toxicity studies serve as another example of the oxidative stress that the disclosed compounds have a protection action against. To establish the dose-dependency of test agents, day 18 hippocampal cultures were utilized to study the toxicity produced after treatment with the heavy metals and neuroprotection after treatment with test compounds. Serving as examples of heavy metal salts for these studies are the following: […] Prior to treatment, the B27/Neural Basal media of the cultures were replaced with B27 neural basal medium without antioxidants for 18 hours. […] Further, the removal of antioxidants in the medium was performed to obtain a significant and reproducible toxic signal for heavy metal treatment of the hippocampal neurons. Toxicity produced by heavy metals is measured by decreases in neuronal viability. Carboxyfluorescein (CFDA) was used a vital stain for all cell toxicity and neuroprotection studies. With the use of the CytoFluor fluorimeter, the CFDA assay was employed to assess the viability of neurons. CFDA is a dye that becomes fluorescent upon cell entry and cleavage by cytosolic esterases (Petroski and Geller. Selective labeling of embryonic neurons cultures on astrocyte monolayers with 5(6)-carboxyfluorescein diacetate [CFDA]. J. Neurosci. Methods 1994, 52, 23-32). Neuronal specificity is obtained relative to astrocytes because the cleaved dye is extruded extracellularlly by glia with time, while dye in neurons remains intracellular. Dose responses to the various heavy metal salts determined the minimal concentration that produced the maximum amount of toxicity. […] All test compounds are dissolved to 10 mM in Dulbecco's phosphate buffered saline (DPBS; Sigma: D-5780) prior to testing. To test for neuroprotection from a heavy metal toxicity, day 11 hippocampal cultures are given a complete change of medium containing 100 μl of Neurobasal medium with B27 that contain no antioxidants. Twenty-four hours after the change in medium, the heavy metal neuroprotection studies are started. […] At the conclusion of the 4 hour incubation period, the dye is removed from the cultures and washed once with 100 μl of DPBS. After removal of the first wash, a second wash of DPBS is added to the culture and then incubated for 30 min to allow the efflux of dye out of glia in the cultures. At the conclusion of the 30 min efflux period, the culture efflux medium is removed and 100 μl of 0.1% triton-X100 in water is added to the cultures before reading at Ex490/Em517 in a CytoFluor fluorimeter. Results are expressed in relative fluorescent units (RFU) and EC50's calculated from the dose response of the test compound.

[3] abbreviates: Cobalt Chloride hexahydrate 10 μM.
[4] abbreviates: Copper Acetate monohydrate 10 μM.
The mark [5] stands for this setting: Nickel Chloride hexahydrate 10 μM.

What is called EC50 is the concentration that produces a half-maximal response.

With `NS(=O)(=O)NCC(F)(F)c1ccccc1F` [Example 1, 2,2-Difluoro-2-(2-fluorophenyl)-ethyl-1-sulfamide], the EC50 was 0.1 nM with Hippocampal Cultures [1] (setting [3]); 0.1 nM in the test with Hippocampal Cultures [1] (setting [4]); 0.01 nM with Hippocampal Cultures [1] (Iron sulfate hexahydrate 10 μM); 0.1 nM with Hippocampal Cultures [1] (setting [5]); 0.01 nM with Hippocampal Cultures [1] (Zinc Acetate dehydrate 1 μM); 100 nM in the test with Hippocampal Cultures [2] (setting [3]). In addition, the EC50 in the test with Hippocampal Cultures [2] (setting [4]) stood at 0.1 nM; with Hippocampal Cultures [2] (Iron sulfate hexahydrate 10 μM), 1 nM; in the test on Hippocampal Cultures [2] (setting [5]), 10 nM; in the test on Hippocampal Cultures [2] (Zinc Acetate dehydrate 1 μM), 0.1 nM. For the same compound, in the test with Hippocampal Cultures [2] (five heavy metal salts at the Table 3 concentrations, CFDA and PI assays), the “Prevention of toxicity of 5 heavy metals” value was “prevented the toxicity of 5 heavy metals”.
